# Test results reported in ChEMBL document CHEMBL3351995, “β-Nitro substituted carboxylic acids and their cytotoxicity” (Bioorg Med Chem Lett, 2014).
# The source made the active and inactive calls. The calls are words filed in the database; no cut-off is given here.
# How the values were obtained:
# [1] = test system: MCF7; test: Cytotoxicity against human MCF7 cells by SRB assay; type: functional, cell-based
# [2] = test system: 8505C; test: Cytotoxicity against human 8505C cells by SRB assay; type: functional, cell-based
# [3] = Cytotoxicity against human 518A2 cells by SRB assay; type: functional, cell-based
# [4] = Cytotoxicity against mouse NIH/3T3 cells by SRB assay; type: cell-based; settings: NIH3T3
# [5] = test system: A2780; test: Cytotoxicity against human A2780 cells by SRB assay; type: functional, cell-based
# [6] = Cytotoxicity against human DLD1 cells by SRB assay; type: functional, cell-based; settings: DLD-1
# [7] = Cytotoxicity against human SW1736 cells by SRB assay; type: functional, cell-based; settings: SW-1736
# [8] = test system: A549; test: Cytotoxicity against human A549 cells by SRB assay; type: functional, cell-based
# [9] = Cytotoxicity against human Lipo cells by SRB assay; type: functional, cell-based
# [10] = Cytotoxicity against human A253 cells by SRB assay; type: functional, cell-based
# [11] = test system: 518A2; test: Induction of apoptosis in human 518A2 cells assessed as secondary necrotic cells at 35 uM after 24 hrs by fluorescence microscopy; type: functional, cell-based
# [12] = test system: 518A2; test: Induction of apoptosis in human 518A2 cells assessed as apoptotic ells at 35 uM after 48 or 72 hrs by annexin V-FITC/propidium iodide staining-based flow cytometry; type: functional
# [13] = test system: 518A2; test: Induction of apoptosis in human 518A2 cells assessed as normal cells at 35 uM after 48 or 72 hrs by annexin V-FITC/propidium iodide staining-based flow cytometry; type: functional
# [14] = test system: 518A2; test: Induction of apoptosis in human 518A2 cells assessed as secondary necrotic cells at 35 uM after 48 or 72 hrs by annexin V-FITC/propidium iodide staining-based flow cytometry; type: functional
# [15] = test system: 518A2; test: Induction of apoptosis in human 518A2 cells assessed as necrotic cells at 35 uM after 48 or 72 hrs by annexin V-FITC/propidium iodide staining-based flow cytometry; type: functional
Structure (SMILES),IC50 [1] [µM],IC50 [2] [µM],IC50 [3] [µM],IC50 [4] [µM],IC50 [5] [µM],IC50 [6] [µM],IC50 [7] [µM],IC50 [8] [µM],IC50 [9] [µM],IC50 [10] [µM],Activity [11],Activity [12] [%],Activity [13] [%],Activity [14] [%],Activity [15] [%]
CCOC(=O)C(C[N+](=O)[O-])c1cccc(C(F)(F)F)c1 (stereo not given),7.6,20.7,8.6,10.2,6.3,8.2,4.7,13.6,10.9,7.2,–,–,–,–,–
CCOC(=O)C(C[N+](=O)[O-])c1cccc(OC(F)(F)F)c1 (stereo not given),> 30,22.1,14.5,> 30,2.2,> 30,16.6,19.9,> 30,11.8,–,–,–,–,–
CCOC(=O)C(C[N+](=O)[O-])c1ccccc1Cl (stereo not given),> 30,> 30,> 30,> 30,9.9,> 30,> 30,> 30,> 30,> 30,–,–,–,–,–
CCOC(=O)C(C[N+](=O)[O-])c1ccccc1 (stereo not given),> 30,> 30,> 30,> 30,> 30,> 30,> 30,> 30,> 30,> 30,–,–,–,–,–
CCOC(=O)C(CN)c1ccc(Cl)cc1 (stereo not given),> 30,> 30,> 30,25.7,22.3,> 30,> 30,> 30,> 30,> 30,–,–,–,–,–
NC(=O)C(C[N+](=O)[O-])c1ccc(Cl)cc1 (stereo not given),> 30,> 30,> 30,> 30,> 30,> 30,> 30,> 30,> 30,> 30,–,–,–,–,–
CCOC(=O)C(C[N+](=O)[O-])c1ccc(F)cc1 (stereo not given),> 30,> 30,> 30,> 30,> 30,> 30,> 30,> 30,> 30,> 30,–,–,–,–,–
CCOC(=O)C(C[N+](=O)[O-])c1ccc(OC)cc1 (stereo not given),> 30,> 30,> 30,> 30,> 30,> 30,> 30,> 30,> 30,> 30,–,–,–,–,–
COC(=O)C(C[N+](=O)[O-])c1ccc(Cl)cc1 (stereo not given),3.4,11.6,5.8,2.1,2.5,5.2,5.8,10.5,8.7,5.4,–,–,–,–,–
CCOC(=O)C(C[N+](=O)[O-])c1ccc(C(F)(F)F)cc1 (stereo not given),6.7,13.8,15.2,9.7,6.6,11,6.3,9.9,15.2,9.8,–,–,–,–,–
CCOC(=O)C(C[N+](=O)[O-])c1cccc(Cl)c1 (stereo not given),17.9,14.9,7.3,21.1,14.4,14.5,8.3,3.5,19.5,10.6,–,–,–,–,–
CCOC(=O)C(C[N+](=O)[O-])c1ccc(Cl)cc1 (stereo not given),22.8,> 30,17.3,7.7,1.6,10.9,> 30,14.9,19.2,> 30,Active,3.224,22.72,12.222,2.883
C=C(C#N)c1ccc(Cl)cc1,14.2,> 30,> 30,23.5,15.4,> 30,> 30,> 30,> 30,> 30,–,–,–,–,–
CCOC(=O)C(C)(C[N+](=O)[O-])c1ccc(Cl)cc1 (stereo not given),> 30,> 30,> 30,> 30,> 30,> 30,> 30,> 30,> 30,> 30,–,–,–,–,–
CCOC(=O)C(C[N+](=O)[O-])c1ccc(C)cc1 (stereo not given),> 30,> 30,> 30,> 30,> 30,> 30,> 30,> 30,> 30,> 30,–,–,–,–,–
O=C(Cc1ccccc1)C(C[N+](=O)[O-])c1ccc(Cl)cc1 (stereo not given),18.2,> 30,23.9,9.2,12.1,22.5,23.9,> 30,28.9,21.4,–,–,–,–,–
CN(C)C(=O)C(C[N+](=O)[O-])c1ccc(Cl)cc1 (stereo not given),> 30,> 30,> 30,> 30,> 30,> 30,> 30,> 30,> 30,> 30,–,–,–,–,–
